Experimental data: PubChem BioAssay (NCI)
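Five compound concentrations were applied to cells in 96-well plates for 48 hours; endpoints were derived by simple linear interpolation of the resulting dose-response curve. GI50: concentration for 50% inhibition of growth. Definition used: TGI = concentration required for complete inhibition of growth.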

Legend:
Assay in all cases: inhibition of tumour cell growth, NCI panel, 48 h
HOP-18 NSCLC = test system: HOP-18 NSCLC
DMS 114 small cell lung = test system: DMS 114 small cell lung
KM20L2 colon = test system: KM20L2 colon
XF 498 CNS = test system: XF 498 CNS
MDA-N = test system: MDA-N
T-47D breast = test system: T-47D breast
DLD-1 colon = test system: DLD-1 colon
LXFL 529 NSCLC = test system: LXFL 529 NSCLC
RXF-631 renal = test system: RXF-631 renal

Row | SMILES | TGI (HOP-18 NSCLC) | TGI (DMS 114 small cell lung) | TGI (KM20L2 colon) | TGI (T-47D breast) | GI50 (T-47D breast) | TGI (DLD-1 colon) | TGI (LXFL 529 NSCLC) | further results
1 | NC(=O)N/N=C(\C(=O)C(=O)Nc1ccc(Cl)c(C(F)(F)F)c1)c1nc2ccc(C(=O)c3ccccc3)cc2[nH]c1=O | > 100 µM | > 100 µM | > 100 µM |  |  |  |  | TGI (XF 498 CNS): 64.1 µM
2 | COc1ccc2c(c1)CCc1c(-c3noc4c3CCc3cc(OC)ccc3-4)noc1-2 |  |  |  | > 100 µM |  |  |  | TGI (MDA-N): > 100 µM
3 | COc1ccc(C(=O)N2CCc3c([nH]c4ccccc34)C2C(=O)O)o1 (stereo not drawn) |  |  |  | > 10 µM |  |  |  | TGI (MDA-N): > 10 µM
4 | NC1=C(Cl)C(=O)c2ccc(S(N)(=O)=O)cc2C1=O |  |  |  | 1.2 µM | 0.318 µM |  |  | 
5 | N=C1N(c2ccccc2)C(=O)C23CCCC2C13N1CCOCC1 (stereo not drawn) | > 100 µM | > 100 µM | > 100 µM |  |  | > 100 µM | > 100 µM | TGI (RXF-631 renal): > 100 µM
6 | O=C(O)C1NCCc2c1[nH]c1ccccc21 (stereo not drawn) | > 100 µM | > 100 µM | > 100 µM | > 10 µM |  | > 100 µM | > 100 µM | TGI (MDA-N): > 10 µM; TGI (RXF-631 renal): > 100 µM
7 | CCCCCCCC/C=C/CCCCCCCC1=NC(C)(C)CN1C(C)C |  |  |  | 3.27 µM | 1.62 µM |  |  | 
8 | C=C1C(=O)O[C@H]2[C@H]1CC/C(COC(=O)CCCCCCCCC(=O)OC/C1=C/CC[C@@]3(C)O[C@H]3[C@H]3OC(=O)C(=C)[C@@H]3CC1)=C\CC[C@@]1(C)O[C@@H]21 |  |  |  | 6.2 µM | 2.16 µM |  |  | 
9 | CCC(C)OC(=O)C1C2CCC(O2)C1C(=O)O (stereo not drawn) | > 100 µM | > 56.4 µM | > 63.5 µM |  |  | > 77.7 µM | > 100 µM | 
10 | c1cc(OCCN2CCCCCC2)ccc1CNc1ccc2nc(CCC3CCCCC3)[nH]c2c1 |  |  |  | 4.79 µM | 1.72 µM |  |  | 
11 | COC1C=CC(C(=O)[N+]2=Cc3[nH]c4ccccc4c3CC2)O1 (stereo not drawn) | > 100 µM | > 100 µM | > 100 µM |  |  | > 100 µM | > 100 µM | TGI (RXF-631 renal): > 100 µM
12 | COc1ccc(-c2cnc3ccnn3c2-c2cc(OC)c(OC)c(OC)c2)cc1 |  |  |  | > 100 µM | > 100 µM |  |  | 
13 | Cc1cc(O)c(C(c2cccnc2)c2c(O)cc(C)[nH]c2=O)c(=O)[nH]1 |  |  |  | > 100 µM |  |  |  | TGI (MDA-N): > 100 µM
14 | O=c1cc(-c2ccc(Cl)cc2)[nH]c2ncccc12 |  |  |  | > 100 µM |  |  |  | GI50 (MDA-N): 8.26 µM; TGI (MDA-N): 26.1 µM
15 | Cc1cc(C)c(O)c(Cc2cccc(Cc3cc(C)cc(C)c3O)c2O)c1 |  |  |  | > 100 µM |  |  |  | TGI (MDA-N): > 100 µM
16 | CCOC(=O)c1c(C)nc2ccc(Cl)cc2c1-c1ccccc1 |  |  |  | 47.8 µM | 12.9 µM |  |  | 
17 | CN(C)CCCN(c1nc(C(Cl)(Cl)Cl)ns1)c1nc(C(Cl)(Cl)Cl)ns1 |  |  |  | 10.5 µM | 2.98 µM |  |  | 
18 | COc1cc(C#N)cc(OC)c1OCCOCCOc1c(OC)cc(C#N)cc1OC |  |  |  | > 100 µM | 21.7 µM |  |  | 
19 | COC(=O)C1(C(=O)OC)CC2c3c(c4ccccc4n3C)CC(C1=O)N2Cc1ccccc1 (stereo not drawn) |  | > 100 µM | > 100 µM |  |  | > 100 µM | > 100 µM | TGI (XF 498 CNS): > 100 µM; TGI (RXF-631 renal): > 100 µM
20 | O=C1N=C(c2ccccc2)OC1C(=O)c1ccccc1 (stereo not drawn) |  |  |  | > 100 µM |  |  |  | TGI (MDA-N): > 100 µM

Row | SMILES | TGI (HOP-18 NSCLC) | TGI (DMS 114 small cell lung) | TGI (KM20L2 colon) | TGI (T-47D breast) | GI50 (T-47D breast) | TGI (DLD-1 colon) | TGI (LXFL 529 NSCLC) | further results
21 | C=C1C(=O)O[C@@H]2C(=O)[C@@H](C)[C@@H]3C=CC(=O)[C@@]3(C)[C@@H](OC(=O)/C(C)=C\C)[C@H]12 |  |  |  | 1.68 µM |  |  |  | TGI (MDA-N): 2.99 µM
22 | COC(=O)C(=O)C(C(=O)C(=O)Nc1ccc(Cl)cc1C)c1nc2ccc(C(=O)c3ccccc3)cc2[nH]c1=O (stereo not drawn) | > 100 µM | > 100 µM | > 100 µM |  |  | > 100 µM | > 100 µM | TGI (RXF-631 renal): > 100 µM
23 | Cc1ccccc1NC(=O)C(=O)C(c1cnc2ccc([N+](=O)[O-])cc2n1)[N+](=O)[O-] (stereo not drawn) | > 100 µM | > 100 µM | > 100 µM |  |  | > 100 µM |  | TGI (RXF-631 renal): > 100 µM
24 | C#CCN=C(N/N=C/c1ccc([N+](=O)[O-])o1)NS(=O)(=O)c1cc(C)c(Cl)cc1SCC(N)=O |  |  |  | 34.9 µM | 18.8 µM |  |  | 
25 | COC(=O)/C(C#N)=C1\CCC(O)N1C (stereo not drawn) | > 100 µM | > 100 µM | > 100 µM |  |  | > 100 µM | > 100 µM | TGI (XF 498 CNS): > 100 µM
26 | COc1ccc(/C(C)=C(\c2ccc(Cl)cc2)c2ccc(OCCN3CCCC3)cc2)cc1F |  |  |  | 7.87 µM | 3.3 µM |  |  | 
27 | O=C(Nc1nccs1)c1cc2c(cc1Cl)Sc1nccn1S2(=O)=O |  |  |  | 64.5 µM | 23.4 µM |  |  | GI50 (MDA-N): 17.9 µM; TGI (MDA-N): 33.4 µM
28 | O=C1/C(=C\C(Cl)=C/c2ccc([N+](=O)[O-])cc2)SC(=S)N1CCc1ccc(O)cc1 |  |  |  | 4.66 µM | 1.64 µM |  |  | 
29 | Clc1cc(Cl)c(Cl)c(-c2nc(-c3cccnc3)cs2)c1 |  |  |  | 65.4 µM | 12.7 µM |  |  | 
30 | O=C1OCc2c1cc(F)cc2[N+](=O)[O-] |  |  |  | > 100 µM | > 100 µM |  |  | 
31 | C/C(CC(=O)NNc1ccc([N+](=O)[O-])cc1)=N\Nc1ccc([N+](=O)[O-])cc1 |  |  |  | > 100 µM | 3.71 µM |  |  | 
32 | COC(=O)N/N=C(/CCN1CCCC1)CC(c1ccccc1)c1c(O)c2ccccc2oc1=O (stereo not drawn) | > 100 µM |  | > 100 µM |  |  | > 100 µM | > 100 µM | TGI (XF 498 CNS): > 100 µM
33 | C=C[C@]1(C)CCC2=C(CCC3C2(C)CCC[C@]3(C)CO)C1 (stereo partly drawn) | > 100 µM | 74.6 µM | 42.3 µM |  |  | > 100 µM | > 100 µM | TGI (XF 498 CNS): > 100 µM; TGI (RXF-631 renal): > 100 µM
34 | CCCc1cc2cc(-n3nc(C)c4c3CC(C)(C)CC4=O)cc(NC3CCC(O)CC3)c2c(=O)[nH]1 (stereo not drawn) |  |  |  | > 100 µM | 0.0994 µM |  |  | 
35 | Oc1ccc(CNCc2ccccc2)c2cccnc12 |  |  |  |  |  |  |  | TGI (MDA-N): > 100 µM
36 | CC(=O)NC(CCCCNC(=O)N(CCCl)N=O)C(=O)NCc1ccccc1 (stereo not drawn) | > 100 µM | > 100 µM | > 100 µM |  |  | > 100 µM | > 100 µM | TGI (XF 498 CNS): > 100 µM; TGI (RXF-631 renal): > 100 µM
37 | O=C1C(=O)N(C(=O)c2ccc(Cl)c(Cl)c2)c2ccc(Cl)cc21 | > 100 µM | 66 µM |  |  |  | > 100 µM | > 100 µM | 
38 | CCN(CC)CCOc1ccc(/C(=C(\C)Cc2ccc(OC)cc2)c2ccc(OC(=O)NCc3ccccc3)cc2)cc1 |  |  |  | 4.11 µM | 1.2 µM |  |  | 
39 | COc1cc(-c2cc(=O)c3ccccc3o2)ccc1N | > 100 µM | > 100 µM | > 100 µM |  |  |  | > 100 µM | TGI (XF 498 CNS): > 100 µM
40 | COc1cc2nc(Sc3c([N+](=O)[O-])ncn3C)[nH]c2cc1OC | > 100 µM | 25.8 µM | > 100 µM |  |  | 46 µM | 32 µM | TGI (XF 498 CNS): 49.2 µM
